Consider one molecule from EP2646421B1, “7-NITRO-5-PHENYL-1-(PYRROLIDIN-1-YLMETHYL)-1H-BENZO[E][1,4]DIAZEPIN-2(3H)-ONE AND OTHER BENZODIAZEPINE DERIVATIVES” (Pignataro, Giuseppe, priority 2010, dated 2012).

“Also recorded” adds a separate entry of the source.

The subject of data set [1] is ischemic volume after tMCAO. The data set is described as follows: Transient middle cerebral artery occlusion (tMCAO) cerebral ischemia model. In kind it is in vivo, mice. An excerpt: For experimental stroke male wild-type C57BL of 2 months have been used. All mice were anesthetized with a gas containing 70 % N2O, 28% O2 e 2% sevoflurane).
Usually, after anesthesia an incision on the ventral neck is made and, under an operating stereo-microscope and with the help of microsurgery twizzers, the muscle is diverted until the common carotid artery (CCA). Then, through smoothly diversion, the CCA is isolated from the vague nerve and the jugulars vein. Analogously, the external carotid artery (ECA) and the internal carotid artery (ICA) are isolated as well.After the isolation of these vessels and the positioning of vascular microclips, a nylon filament (5-0, Ethilon, 11 mm length) is inserted into the internal carotid artery (ICA), at the level of bifurcation with the common carotid artery. The filament is pushed in cranial direction until is reached the bifurcation of the middle cerebral artery (MCA), whose flux is interrupted. After the insertion of the filament the wound is closed with a temporary suture and the mouse is let to awake. After 60 minutes the animal is re-anesthesized and the ischemia is interrupted through the filament rimotion from the vessel. The reduction in cerebral blood flow has been evaluated by means of a cerebral laser-Doppler system (Periflux, Sweden with software Perimed 1.30) that uses a probe fixed on the skull. The body temperature has been maintained constant by means of a homoeothermic blanket connected to a rectal probe. Few minutes after the end of the surgical procedure the mouse awakes and, on the nasis of the pain degree noticed, is decided for the administration of analgesic drugs. Neurounina-1 administration has been done intraperitoneally at different dosages, immediately before, 3 hours or 5 hours the ischemia onset. 24 hours after the surgical procedure, the animal is killed through cervical dislocation and the brain is removed from the skull and analyzed for the determination of the ischemic damage extension. In particular, by means of a vibratome, serial coronal brain sections of […] are obtained. These brain sections are treated with 2,3,5-triphenyl tetrazolium chloride (TTC), an organic compound that has the peculiarity of being oxidized and precipitated as formazan salt only from vital tissue. By contrast, the ischemic tissue, being not able to generate this reaction, remains white. […] The software used (Image Pro-plus 4.1) allows, then, to obtain the brain infarct volume from the value of the infarct areas obtained in close brain slices.Data obtained in this manner are then elaborated to obtain a percentage evaluation of the ischemic damage induced compared to the brain hemisphere […] to the ischemic lesion.

A further data set concerns BHK cells. The data set is described as follows: Cell viability by fluorescein diacetate / propidium iodide staining. In kind it is cell-based, hamster. The note with it: 10 µM, 24 hours. An excerpt: Fluorescein diacetate (FDA) is an apolar ester that could cross plasmamembrane. […] The polar compound propidium-iodide (PI) can not cross an intact plasmamembrane, so this is a good marker of necrotic cells. Once PI enters into the cell, this compound interact with nuclear DNA and give a fluorescent red light. Consequently, in the same cellular population, it is possible to discriminate live cells from dead cells, because the last group are PI-positive. In PI/PDA experiments, BHK cells were firstly treated with 10 µM neurounina-1 for 24 hours and then incubated for 3 minutes, at 22°C, in a PBS solution containing fluorescein diacetate (FDA; Sigma) and propidium iodide (PI, Calbiochem, San Diego, CA, U.S.A.), at the concentrations of di 36 µM e 7 µM, respectively. At the end of the incubation, cells were washed with PBS and observed at the microscope.

Another data set deals with T1, NCX1Δf (Canis lupus familiaris, UniProt P23685, DEL273-712).
T1 construct: expressed in transfected cells
The data set is described as follows: Na+-dependent Ca2+ influx assay on BHK cells with f-loop deletion mutant. Type of data set: cell-based. The note with it: 10 nM; compared to wild-type NCX3 exposed to the same treatment. The procedure: In order to establish the molecular determinants of the effect of neurounina-1 on NCX1, we firstly performed a Na^+-dependent Ca^2+ influx assay on BHK cells stably transfected with a mutated NCX1 exchanger (NCX1Δf), in which a large portion of the f loop, region 241-680, was removed by deletion mutagenesis.
(§1) All experiments aimed to identify the binding site of neurounina-1 were performed on BHK cells stably transfected with a single NCX chimera or mutant.
The activity of the Na^+/Ca^2+ exchanger was measured by means of ^45Ca^2+ radiotracer variations in the cytoplasm of cells exposed to a protocol stimulating the forward or the reverse mode of the antiporter. The BHK cells expressing each mutated or non-mutated NCX isoform were cultured in 12-well dishes and incubated in 145 mM NaCl for 10 minutes and then in a medium containing only 145 mM N-Methyl D-glucamine (NMDG) and 10 µM of ^45Ca^2+. This rapid substitution of the medium from a high level of Na^+ to another one without Na^+ allow the ^45Ca^2+ influx (reverse mode). Before the medium substitution cells was incubated with 1 mM ouabain, a Na^+/K^+ pump inhibitor, and 10 µM monensin, a ionophore for extracellular Na^+. […] The medium was removed and cells were subsequently lysed with 0.1 N NaOH and aliquots were taken to determine radioactivity and protein content.

Data set [2] relates to N3-(109/133-788/829) chimera. The data set is described as follows: Na+-dependent 45Ca2+ uptake and efflux on NCX1/NCX3 chimera. In kind it is cell-based. Conditions: 10 nM; NCX3 with α1 and α2 regions of NCX1.
Source text: (§2) To deeper investigate on the regions and amino acids present on NCX1 responsible for the interaction with neurounina-1 compound, we utilized chimeric and site-mutated proteins. In particular, we generate chimeric proteins with a large sequence of NCX1 and some regions of NCX3 protein. […] By using the chimeric technique it is possible to determine the importance of NCX1 regions by substituting with analogue segments of NCX3 protein. […] Therefore, these two regions result to be involved in the pharmacological modulation of NCX1 from neurounina-1 compound.
as §1
(§3) The activity of the Na^+/Ca^2+ exchanger was measured by means of ^45Ca^2+ radiotracer variations in the cytoplasm of cells exposed to a protocol stimulating the forward or the reverse mode of the antiporter. The BHK cells expressing each mutated or non-mutated NCX isoform were cultured in 12-well dishes and incubated in 145 mM NaCl for 10 minutes and then in a medium containing only 145 mM N-Methyl D-glucamine (NMDG) and 10 µM of ^45Ca^2+. This rapid substitution of the medium from a high level of Na^+ to another one without Na^+ allow the ^45Ca^2+ influx (reverse mode). Before the medium substitution cells was incubated with 1 mM ouabain, a Na^+/K^+ pump inhibitor, and 10 µM monensin, a ionophore for extracellular Na^+. After 30 seconds incubation, cells were washed with an ice-cold solution containing 2 mM La^3+ to stop ^45Ca^2+ uptake. The medium was removed and cells were subsequently lysed with 0.1 N NaOH and aliquots were taken to determine radioactivity and protein content.
(§4) In order to measure NCX activity in the forward mode, cells were firstly loaded with ^45Ca^2+ and subsequently exposed to a chemical protocol to stimulate the efflux of the radiotracer in the extracellular medium. […] After 60 second, cells were lysed with […] NaOH and aliquots were taken to determine cytoplasmatic radioactivity.

For the next data set, the target named is T2, N1-788/829 (Canis lupus familiaris, UniProt P23685, L840F/Q858V/T855L/V852A).
T2 construct: expressed in transfected cells
The data set is described as above. Type of data set: cell-based. Conditions: 10 nM; NCX1 region 788-829 (α2) substituted with NCX3 segment.
Source text: as §2, §1, §3, §4

The target of another data set is T3, N1-109/133 (Canis lupus familiaris, UniProt P23685, N157G/T159I/V150L).
T3 construct: expressed in transfected cells
Described as above. Type of data set: cell-based. The note with it: 10 nM; NCX1 region 109-133 (α1) substituted with NCX3 segment.
Source text: as §2, §1, §3, §4

T2 sequence (P23685 33-970 L840F/V852A/T855L/Q858V): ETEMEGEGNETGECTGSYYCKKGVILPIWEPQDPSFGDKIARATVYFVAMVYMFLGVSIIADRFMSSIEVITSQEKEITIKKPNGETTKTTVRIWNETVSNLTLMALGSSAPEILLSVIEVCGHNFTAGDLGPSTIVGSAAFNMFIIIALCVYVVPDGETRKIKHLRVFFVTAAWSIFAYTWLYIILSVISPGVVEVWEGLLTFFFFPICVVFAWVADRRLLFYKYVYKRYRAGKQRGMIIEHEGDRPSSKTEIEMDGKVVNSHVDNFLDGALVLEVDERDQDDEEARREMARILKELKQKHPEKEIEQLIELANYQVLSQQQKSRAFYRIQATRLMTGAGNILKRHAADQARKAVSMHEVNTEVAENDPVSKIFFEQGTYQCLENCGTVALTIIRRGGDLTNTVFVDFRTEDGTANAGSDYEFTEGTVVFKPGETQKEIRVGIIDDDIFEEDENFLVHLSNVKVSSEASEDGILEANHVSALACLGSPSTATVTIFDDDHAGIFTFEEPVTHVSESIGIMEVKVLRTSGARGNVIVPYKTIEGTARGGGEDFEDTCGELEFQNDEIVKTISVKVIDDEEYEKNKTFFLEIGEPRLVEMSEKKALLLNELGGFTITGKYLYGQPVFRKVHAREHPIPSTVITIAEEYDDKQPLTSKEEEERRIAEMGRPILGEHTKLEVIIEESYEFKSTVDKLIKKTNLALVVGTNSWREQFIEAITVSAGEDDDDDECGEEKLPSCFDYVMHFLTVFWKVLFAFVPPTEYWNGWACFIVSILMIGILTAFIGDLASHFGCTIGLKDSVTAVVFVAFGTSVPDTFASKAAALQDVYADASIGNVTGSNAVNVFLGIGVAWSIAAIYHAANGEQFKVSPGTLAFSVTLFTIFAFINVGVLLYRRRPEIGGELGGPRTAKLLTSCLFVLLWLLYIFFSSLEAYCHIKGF
T1 sequence (P23685 with tags, fused parts or gaps DEL273-712): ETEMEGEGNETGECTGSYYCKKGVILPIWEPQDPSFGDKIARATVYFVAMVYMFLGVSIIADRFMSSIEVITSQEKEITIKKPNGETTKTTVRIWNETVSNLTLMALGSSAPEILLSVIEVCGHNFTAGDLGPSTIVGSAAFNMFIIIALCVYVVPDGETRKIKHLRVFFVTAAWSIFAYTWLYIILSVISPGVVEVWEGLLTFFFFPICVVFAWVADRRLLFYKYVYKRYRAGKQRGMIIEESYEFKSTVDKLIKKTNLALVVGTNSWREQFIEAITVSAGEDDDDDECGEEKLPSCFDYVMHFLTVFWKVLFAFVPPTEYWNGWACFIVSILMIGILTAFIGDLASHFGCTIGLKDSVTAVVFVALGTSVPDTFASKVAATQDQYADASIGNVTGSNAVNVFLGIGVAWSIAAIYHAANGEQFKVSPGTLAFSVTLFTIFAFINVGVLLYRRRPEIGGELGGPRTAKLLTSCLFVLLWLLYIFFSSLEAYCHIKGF
T3 sequence (P23685 33-970 V150L/N157G/T159I): as the sequence (P23685 33-970 L840F/V852A/T855L/Q858V) above, with V118L, N125G, T127I, F808L, A820V, L823T, V826Q counted along it

As to `O=C1CN=C(c2ccccc2)c2cc([N+](=O)[O-])ccc2N1CN1CCCC1` [neurounina-1, 7-nitro-5-phenyl-1-(pyrrolidin-1-ylmethyl)-1H-benzo[e][1,4]diazepin-2(3H)-one], the ischemic damage entry in data set [1] (administered just before tMCAO induction, 3 ng/kg, intraperitoneal) is “significantly reduced ischemic damage”. For the same molecule, the “minimal dose with neuroprotective effect” value in data set [1] (five hours from tMCAO, intraperitoneal) is 0.03 mg/kg. Moreover, the neuroprotective effect result in data set [1] (intraperitoneally 3 hours after tMCAO, dose-range 3 ng/kg to 30 µg/kg) was “still present”. Further, in data set [1] (mice, intraperitoneal administration, tMCAO), the ischemic volume entry is “decreased the ischemic volume”. The cell viability result with BHK cells was “did not show any toxic effect; also recorded: did not affect”. Further, on NCX1Δf, the “activity of the mutant NCX1Δf” value was “significantly increased”. In addition, the “activity of N3-(109/133-788/829) chimera” value in data set [2] is “significantly increased activity”. At N1-788/829, the “pharmacological effect on N1-788/829 chimera” value is listed as “removed the pharmacological effect”. Also, the “pharmacological effect on N1-109/133 chimera” value on N1-109/133 is listed as “removed the pharmacological effect”.
